Source: patent US12383499B2, “Scale up synthesis of silicasome nanocarriers” (The Regents of the University of California, priority 2018, dated 2025)
Counter-ions that a name gives are not always drawn.

Legend:
orthotopic MC38 tumor = assay: Efficacy and survival in the orthotopic MC38 tumor chunk colon cancer model; format: in vivo, C57BL/6 mice
[1] = Toxicity study (bone marrow, GI tract, liver, body weight); format: in vivo, C57BL/6 mice; details: 24 h after 4 IV injections of 40 mg/kg irinotecan
Source text: Irinotecan exerts major systemic toxicological effects (e.g., neutropenia and diarrhea) when used as a free drug monotherapy or in combination with 5-FU (i.e., FOLFIRI regimen) in CRC (Cunningham et al. (1998) The Lancet, 352, 1413-1418; Rougier et al. (1998) The Lancet, 352: 1407-1412; Saltz et al. (2000) N. Engl. J Med. 343: 905-914). This constitutes one of the principal reasons for considering encapsulated irinotecan delivery. […] The possibility of acute myelosuppression effects was assessed by the collection of whole blood 24 h after the last IV injection, as well as looking at bone marrow cellularity (Id.). […] The visual appearance was confirmed by computer software that semi-quantitatively scored the total marrow cellularity and hematopoietic nuclei in the histology images (FIG. 13, panel A) (Travlos (2006) Toxicol. Pathol. 34: 548-565). […]
To compare the toxicity of different irinotecan formulations, a toxicity study was performed in healthy female C57BL/6 mice using a published protocol (Iusuf et al. (2014) Mol. Cancer Ther. 13: 492-503). […] H&E staining to assess bone marrow and hematopoietic cellularity in the sternum was analyzed by Aperio ImageScope software (Travlos (2006) Toxicol. Pathol. 34: 548-565).

[2] = system: orthotopic KPC-derived PDAC tumor; assay: Efficacy and survival in the orthotopic KPC-derived PDAC model; format: in vivo, B6/129SF1/J mice; details: 40 mg/kg twice per week, three IV administrations, n=3
KPC cells = assay: MTS cytotoxicity assay, KPC cells; format: cell-based, murine; details: KPC pancreatic cancer cells
Description: (§1) The cytotoxicity of purified MSNPs was assessed in a standard MTS assay (CellTiter 96® AQueous One Solution Cell Proliferation Assay, Promega). KPC or MC38 cells were plated at a density of 5×10^3 cells per well in a 96-well plate and cultured for 24 hr. The medium was replaced with fresh medium containing the different NPs at the indicated concentrations. Non-treated cells were used as control. After a 48 hr treatment, the medium was replaced with 100 μL fresh medium containing MTS solution (5:1, v/v medium/CellTiter 96® Aqueous stock solution) for further culture at 37° C. for 1 hr. The absorbance of the culture wells at 490 nm was directly recorded by a microplate reader (M5e, Molecular Device, USA). Wells without cells but contained the same MTS solution were used as blank. The relative cell viability (%) is [(the absorption of treated well−blank)/(the absorption of control well−blank)]×100.

MC38 cells = assay: MTS cytotoxicity assay, MC38 cells; format: cell-based, murine; details: MC38 colon cancer cells
Description: as §1

non-metastatic PDAC = details: cited from earlier work

Question: With `CCc1c2c(nc3ccc(OC(=O)N4CCC(N5CCCCC5)CC4)cc13)-c1cc3c(c(=O)n1C2)COC(=O)[C@]3(O)CC` [free irinotecan, Irinotecan hydrochloride trihydrate] as the compound, how does the “tumor growth by IVIS bioluminescence imaging” value (orthotopic MC38 tumor; 40 mg/kg irinotecan equivalent IV twice per week, up to day 21, n=6) read?
Answer: no significant tumor growth inhibition

Question: And the “survival (Kaplan-Meier, Log-rank)” value (orthotopic MC38 tumor; 40 mg/kg irinotecan equivalent IV twice per week, up to six administrations, n=6)?
Answer: no significant survival benefit

Question: What about the “rate of apoptosis (cleaved caspase-3 IHC) in orthotopic tumors” value (orthotopic MC38 tumor; 24 h after the 4th IV injection, 40 mg/kg, n=3) of the same compound?
Answer: ~2.5%

Question: What about the “bone marrow cellularity / myelosuppressive effects (sternum H&E)” value [1] of the same compound?
Answer: significant myelosuppressive effects

Question: What about the “neutrophil count / neutropenia (differential WBC counts)” value [1] of the same compound?
Answer: significant degree of neutropenia

Question: What about the “primary tumor growth and metastasis (IVIS imaging)” value [2] of the same compound?
Answer: inefficient tumor inhibition

Question: What about the “in vitro killing effect (MTS)” value (KPC cells) of the same compound?
Answer: most robust killing effect

Question: And the “in vitro killing effect (MTS)” value (MC38 cells)?
Answer: most robust killing effect

Question: With `Nc1ccn([C@@H]2O[C@H](CO)[C@@H](O)C2(F)F)c(=O)n1` [gemcitabine] as the compound, how does the disease-free survival (non-metastatic PDAC) read?
Answer: 12.8 months
